The assay relates to nude mice, HT29 intrarenal xenograft, tumor weight T/C. The assay is described as follows: NCI In Vivo Anticancer Drug Screen. Data for tumor model HT29;CX-1 Human Adenocarcinoma (MER+) (intrarenal inoculation) in NU/NU Swiss (nude) mice. As to conditions: endpoint: mean tumor weight change, higher = larger tumour. The gist of the method:
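Endpoint measured as tumor size or survival; ratio reported is treated group over vehicle controls.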

[1] abbreviates: dose: 50.0 mg/kg/injection, schedule: Q04DX004 (sc), vehicle: saline with Tween-80.
[2] abbreviates: dose: 200.0 mg/kg/injection, schedule: Q04DX004 (sc), vehicle: saline with Tween-80.
The mark [3] stands for this setting: dose: 75.0 mg/kg/injection, schedule: Q04DX004 (sc), vehicle: saline.
Where [4] appears, read: dose: 150.0 mg/kg/injection, schedule: Q04DX004 (sc), vehicle: saline.
Where [5] appears, read: dose: 100.0 mg/kg/injection, schedule: Q04DX004 (sc), vehicle: saline with Tween-80.
Setting [6] is: dose: 400.0 mg/kg/injection, schedule: Q04DX004 (sc), vehicle: saline with Tween-80.
The mark [7] stands for this setting: dose: 300.0 mg/kg/injection, schedule: Q04DX004 (sc), vehicle: saline with Tween-80.
Setting [8] is: dose: 600.0 mg/kg/injection, schedule: Q04DX004 (sc), vehicle: saline with Tween-80.
Where [9] appears, read: dose: 1200.0 mg/kg/injection, schedule: Q04DX004 (sc), vehicle: saline with Tween-80.
The mark [10] stands for this setting: dose: 37.5 mg/kg/injection, schedule: Q04DX004 (sc), vehicle: suspension in saline.
The mark [11] stands for this setting: dose: 75.0 mg/kg/injection, schedule: Q04DX004 (sc), vehicle: suspension in saline.
The mark [12] stands for this setting: dose: 100.0 mg/kg/injection, schedule: Q01DX010 (sc), vehicle: saline with Tween-80.

Values joined by “and” are separate entries in the source; they are usually repeats but may differ in a detail not shown here. Identical values can stand only once. Results filed as inconclusive are left out.

Consider `c1ccc(CN2CCOC2)cc1`, for which the T/C was 100 % of control (dose: 25.0 mg/kg/injection, schedule: Q01DX010 (sc), vehicle: suspension in saline); 106 % of control (dose: 50.0 mg/kg/injection, schedule: Q01DX010 (sc), vehicle: suspension in saline); 102 % of control (dose: 100.0 mg/kg/injection, schedule: Q01DX010 (sc), vehicle: suspension in saline).
As to `COc1ccc(OC)c(Cc2cnc3nc(N)nc(N)c3c2C)c1`, the T/C is, setting by setting: (dose: 150.0 mg/kg/injection, schedule: Q04DX004 (sc), vehicle: water) 116 % of control; (dose: 300.0 mg/kg/injection, schedule: Q04DX004 (sc), vehicle: water) 54 % of control.
Turning to `C/C=C/c1cc2c(c(=O)o1)C(=O)[C@@H](O)[C@H](C)O2`, the T/C was 107 % of control under setting [1] and 79 % of control under setting [2].
For `O=C1C(O)=C(c2ccccc2)C(=O)C(O)=C1c1ccccc1`, the T/C is 95 % of control under setting [3] and 60 % of control under setting [4].
For `N#CC(=C1C=CC(=NO)C=C1)c1ccc(Cl)cc1`, the T/C was 80 % of control under setting [1], 90 % of control under setting [5] and 113 % of control under setting [6].
In the case of `COc1cccc2c1C(=O)c1c(O)c3c(c(O)c1C2=O)C[C@@](O)(C(C)=O)C[C@@H]3OC1CC(N(Cc2ccccc2)Cc2ccccc2)C(O)C(C)O1` (some centres undefined), the T/C is 36 % of control (dose: 25.0 mg/kg/injection, schedule: Q01DX010 (sc), vehicle: water); 104 % of control and 212 % of control (dose: 31.25 mg/kg/injection, schedule: Q04DX004 (sc), vehicle: water); 97 % of control and 220 % of control (dose: 62.5 mg/kg/injection, schedule: Q04DX004 (sc), vehicle: water).
Take `OCC1OC(n2cnc3cc(Cl)c(Cl)cc32)C(O)C1O` (centres undefined): the T/C is 111 % of control under setting [7], 60 % of control under setting [8] and 122 % of control under setting [9].
On to `COc1cccc2c1C(=O)c1c(O)c3c(c(O)c1C2=O)CC(O)(C(=O)CO)CC3OC1CC(N)C(O)C(C)O1` (centres undefined), for which the T/C (dose: 48.0 mg/kg/injection, schedule: Q01DX010 (sc), vehicle: saline) is 90 % of control.
`NCC1CCC(C(=O)O)CC1` (centres undefined): the T/C under setting [6] was 119 % of control; the T/C (dose: 800.0 mg/kg/injection, schedule: Q04DX004 (sc), vehicle: saline with Tween-80) was 93 % of control; the T/C (dose: 1600.0 mg/kg/injection, schedule: Q04DX004 (sc), vehicle: saline with Tween-80) was 112 % of control.
On to `O=NN(CCCl)C(=O)Oc1ccc(OC(=O)N(CCCl)N=O)cc1`, for which the T/C was 44 % of control (dose: 37.5 mg/kg/injection, schedule: Q04DX004 (sc), vehicle: Klucel (hydroxypropylcellulose) (HPC)); 67 % of control (dose: 75.0 mg/kg/injection, schedule: Q04DX004 (sc), vehicle: Klucel (hydroxypropylcellulose) (HPC)); 29 % of control (dose: 150.0 mg/kg/injection, schedule: Q04DX004 (sc), vehicle: Klucel (hydroxypropylcellulose) (HPC)); 23 % of control (dose: 300.0 mg/kg/injection, schedule: Q04DX004 (sc), vehicle: Klucel (hydroxypropylcellulose) (HPC)).
Turning to `[CH3][Sn]([CH3])([Cl])[S]CCN`, the T/C reads like this: (dose: 18.75 mg/kg/injection, schedule: Q04DX004 (sc), vehicle: suspension in saline) 92 % of control; under setting [10], 65 % of control; under setting [11], 40 % of control.
Take `C=C1CC2(OC1=O)C(=O)N(C)c1ccc(I)cc12` (centres undefined): the T/C was 80 % of control under setting [10]; 71 % of control under setting [11]; 81 % of control (dose: 150.0 mg/kg/injection, schedule: Q04DX004 (sc), vehicle: suspension in saline).
Regarding `COC1=NCN=C2SC=C(N)N=C12`, the T/C is, setting by setting: (dose: 37.5 mg/kg/injection, schedule: Q04DX004 (sc), vehicle: saline) 86 % of control; under setting [3], 70 % of control; under setting [4], 73 % of control.
On to `COc1cc(Cc2nccc3cc(OC)c(OC)cc23)c(C(C)=O)c(OC)c1`, for which the T/C is, setting by setting: (dose: 40.0 mg/kg/injection, schedule: Q01DX010 (sc), vehicle: saline) 35 % of control; (dose: 80.0 mg/kg/injection, schedule: Q01DX010 (sc), vehicle: saline) 50 % of control; (dose: 160.0 mg/kg/injection, schedule: Q01DX010 (sc), vehicle: saline) 19 % of control.
As to `[N-]=[N+]=C1N=CN=C1c1ncn[nH]1`, the T/C is, setting by setting: (dose: 12.5 mg/kg/injection, schedule: Q01DX010 (sc), vehicle: Klucel (hydroxypropylcellulose) (HPC)) 73 % of control; (dose: 25.0 mg/kg/injection, schedule: Q01DX010 (sc), vehicle: Klucel (hydroxypropylcellulose) (HPC)) 41 % of control.
`Nc1ccc(C(OC(=O)c2cc3ccccc3c(Cc3c(O)c(C(=O)OC(c4ccc(N)cc4)(c4ccc(N)cc4)c4ccc(N)cc4)cc4ccccc34)c2O)(c2ccc(N)cc2)c2ccc(N)cc2)cc1`: the T/C by setting is: (dose: 36.0 mg/kg/injection, schedule: Q04DX004 (sc), vehicle: saline with Tween-80) 118 % of control; (dose: 72.0 mg/kg/injection, schedule: Q04DX004 (sc), vehicle: saline with Tween-80) 70 % of control; (dose: 144.0 mg/kg/injection, schedule: Q04DX004 (sc), vehicle: saline with Tween-80) 68 % of control; (dose: 150.0 mg/kg/injection, schedule: Q04DX004 (sc), vehicle: saline with Tween-80) 94 % of control; under setting [7], 55 % of control.
Take `Cc1cc2cc3cc(C)c(N)cc3nc2cc1N`: the T/C by setting is: under setting [1], 86 % of control; under setting [5], 90 % of control; under setting [2], 82 % of control; under setting [7], 89 % of control; under setting [6], 66 % of control; under setting [8], 21 % of control. For the same molecule, the T/C by setting is: under setting [9], 37 % of control; (dose: 2400.0 mg/kg/injection, schedule: Q04DX004 (sc), vehicle: saline with Tween-80) 45 % of control.
Turning to `CCCCCC(O)C1C(=O)OC(C)C(O)/C=C/C=C/C=C/C=C\C=C(\C)C(O)CC(O)CC(O)CC(O)CC(O)CC(O)CC1O` (centres undefined), the T/C (dose: 37.5 mg/kg/injection, schedule: Q04DX004 (sc), vehicle: distilled water + alcohol) was 73 % of control; the T/C (dose: 75.0 mg/kg/injection, schedule: Q04DX004 (sc), vehicle: distilled water + alcohol) is 110 % of control; the T/C (dose: 150.0 mg/kg/injection, schedule: Q04DX004 (sc), vehicle: distilled water + alcohol) was 107 % of control.
For the molecule `CC(/C=N/N=C(N)N)=N\N=C(N)N`, the T/C (dose: 12.5 mg/kg/injection, schedule: Q01DX010 (sc), vehicle: water) was 67 % of control.
For `CCC12C[N+]3([O-])CCc4c([nH]c5ccccc45)C(C(=O)OC)(c4cc5c(cc4OC)N(C)C4C(O)(C(=O)OC)C(OC(C)=O)C6(CC)C=CCN7CCC54C76)CC(C3)C1O2` (centres undefined), the T/C was 81 % of control (dose: 20.0 mg/kg/injection, schedule: Q04DX004 (sc), vehicle: water); 60 % of control (dose: 40.0 mg/kg/injection, schedule: Q04DX004 (sc), vehicle: water); 85 % of control (dose: 80.0 mg/kg/injection, schedule: Q04DX004 (sc), vehicle: water); 71 % of control (dose: 160.0 mg/kg/injection, schedule: Q04DX004 (sc), vehicle: water).
For the molecule `COC1=C(OC)C(=O)C(C/C=C(\C)CC/C=C(\C)CC/C=C(\C)CC/C=C(\C)CC/C=C(\C)CC/C=C(\C)CC/C=C(\C)CC/C=C(\C)CC/C=C(\C)CCC=C(C)C)=C(C)C1=O`, the T/C is 113 % of control under setting [12]; 98 % of control (dose: 200.0 mg/kg/injection, schedule: Q01DX010 (sc), vehicle: saline with Tween-80); 105 % of control (dose: 400.0 mg/kg/injection, schedule: Q01DX010 (sc), vehicle: saline with Tween-80); 46 % of control (dose: 800.0 mg/kg/injection, schedule: Q01DX010 (sc), vehicle: saline with Tween-80).
Regarding `NC1(C(=O)O)CCCC1`, the T/C by setting is: (dose: 12.5 mg/kg/injection, schedule: Q01DX010 (sc), vehicle: saline) 49 % of control; (dose: 200.0 mg/kg/injection, schedule: Q01DX010 (sc), vehicle: saline) -20 % of control.
As to `CCC(C(=O)O)C(=O)O.[NH2-].[NH2-].[Pt+2]`, the T/C runs as follows: under setting [3], 92 % of control; under setting [4], 50 % of control.
Consider `CCOC(=O)C(C)(C)Oc1ccc(Cl)cc1`, for which the T/C reads like this: under setting [7], 72 % of control; under setting [8], 70 % of control; under setting [9], 68 % of control.
For the molecule `O=c1nc(Oc2ccccc2)nc2ncccn12`, the T/C is, setting by setting: (dose: 50.0 mg/kg/injection, schedule: Q01DX010 (sc), vehicle: saline with Tween-80) 312 % of control; under setting [12], 156 % of control.

The values are drawn from PubChem BioAssay AID206 (DTP/NCI, 2004).
